The values below come from patent US20110312961A1, “2,5-Disubstituted Morpholine Orexin REceptor Antagonists” (priority 2008, published 2011).

In series [1] the target is T1, rat native α7 receptors (Rattus norvegicus, UniProt Q05941).
T1 construct: rat native α7 receptors in rat hippocampal membranes; from tissue; host or cells: rat (female Sprague-Dawley) hippocampus membranes
Kind of series: [3H]MLA radioligand binding, α7 NNR subtype, rat hippocampal membranes. As to conditions: read-out: Ki, inhibition of [3H]methyllycaconitine (MLA) binding to rat native α7 receptors. As to the method:
Rats (female, Sprague-Dawley), weighing 150-250 g, were maintained on a 12 h light/dark cycle and were allowed free access to water and food supplied by PMI Nutrition International, Inc. Animals were anesthetized with 70% CO2, and then decapitated. Brains were removed and placed on an ice-cold platform. The hippocampus was removed and placed in 10 volumes (weight:volume) of ice-cold preparative buffer (137 mM NaCl, 10.7 mM KCl, 5.8 mM KH2PO4, 8 mM Na2HPO4, 20 mM HEPES (free acid), 5 mM iodoacetamide, 1.6 mM EDTA, pH 7.4); PMSF, dissolved in methanol to a final concentration of 100 μM, was added and the tissue suspension was homogenized by Polytron. […] Protein was determined by the method of Lowry et al., J. Biol. Chem. 193: 265 (1951), using bovine serum albumin as the standard.
The binding of [^3H]MLA was measured using a modification of the methods of Davies et al., Neuropharmacol. […] The binding of [^3H]MLA was determined using a 2 h incubation at 21° C. […] Non-specific binding was determined by inclusion of 50 μM non-radioactive MLA in selected wells.
The inhibition of [^3H]MLA binding by test compounds was determined by including seven different concentrations of the test compound in selected wells. […] Inhibition constants (Ki values), reported in nM, were calculated from the IC50 values using the method of Cheng et al., Biochem. Pharmacol. 22: 3099-3108 (1973).

Series [2] deals with Sprague-Dawley rats. Kind of series: Complete Freund's adjuvant (CFA)-induced thermal hyperalgesia. As to conditions: 0.1, 1 or 10 mg/kg s.c., 1 hour post-dose, vs vehicle. It is filed as in vivo, rat. As to the method: Injection of complete Freund's adjuvant (CFA) in rats is commonly used to evaluate compounds with potential for use as drugs in treatment of mono-arthritis (osteo-arthritis) and other inflammatory conditions. Signs of hyperalgesia develop within 24 h (Schaible and Grubb, 1993).
(2S,3R)—N-2-((3-pyridinyl)methyl)-1-azabicyclo[2.2.2]oct-3-yl)-3,5-difluorobenzamide was evaluated for possible analgesia effect in the CFA-induced thermal hyperalgesia test in rats using methods similar to those described by Walker and colleagues (2003). Briefly, adult male Sprague-Dawley rats (BioLasco, Taiwan) weighing 180±20 g on receipt were randomly assigned to treatment groups of n=8 per group. Animals each received a sub plantar injection (0.1 mL) of CFA (DIFCO, 264010; 0.1% solution) to the right hind paw at 24 h prior to experimental testing. Thermal hyperalgesia was tested using a Paw/Tail stimulator analgesia meter (IITC Model-336G, IITC, USA) with a thermally regulated glass floor set at 30° C. […] The time required for the animal to withdraw the paw from the thermal stimulus was automatically recorded. […]
Twenty-four hours after CFA injection, subjects were pre-selected (for clear presence of thermal hyperalgesia) for experimentation only if the latency to withdrawal was less than 75% of the baseline. […] The post-treatment level of thermal hyperalgesia was then measured at 60 minutes post-treatment. […]

Series [3] is described as follows: Aqueous solubility of salts (salt screen). It is filed as physicochemical. The note with it: free base form.

T1 sequence (Q05941 23-502): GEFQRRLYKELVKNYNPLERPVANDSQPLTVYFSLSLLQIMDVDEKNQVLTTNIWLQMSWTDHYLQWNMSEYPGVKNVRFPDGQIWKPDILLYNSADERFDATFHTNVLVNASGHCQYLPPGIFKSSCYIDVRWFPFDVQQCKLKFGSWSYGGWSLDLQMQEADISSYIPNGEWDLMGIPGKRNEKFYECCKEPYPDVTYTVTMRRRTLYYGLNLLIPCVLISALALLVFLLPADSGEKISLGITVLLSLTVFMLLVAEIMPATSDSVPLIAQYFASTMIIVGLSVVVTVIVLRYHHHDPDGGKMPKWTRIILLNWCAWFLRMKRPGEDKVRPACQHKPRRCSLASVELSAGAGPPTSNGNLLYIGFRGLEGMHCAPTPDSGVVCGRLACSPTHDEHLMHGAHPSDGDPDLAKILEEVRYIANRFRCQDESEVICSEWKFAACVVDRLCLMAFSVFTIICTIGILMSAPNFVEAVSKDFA

As to `O=C(N[C@@H]1C2CCN(CC2)[C@H]1Cc1cccnc1)c1cc(F)cc(F)c1` [Compound A], the Ki – broadly, a measure of affinity in units of concentration, obtained from inhibition or displacement – in series [1] stood at 100 nM. For the same molecule, the “analgesic effect on CFA-induced thermal hyperalgesia” value in series [2] is “not associated with any significant analgesic effect”. Also, the water solubility entry in series [3] is “limited water solubility”.
